SMILES strings stand for the structures. Where a SMILES comes first, the peptide text is derived from it. Bridges are numbered along the chain shown (N, C = ends).

This data set is described as follows: Determination of the protein binding (90% serum, 30 kDa filter, HPLC). The format is in vitro ADME. The note with it: serum. Here is the method:
Protein binding assays were performed as follows. The purified peptides were mixed with 90% serum and centrifuged through a 30 kDa filter. The ultra-filtrate and the non filtrated serum samples were quantified by HPLC measurements and the protein binding was subsequently calculated.

A word on the fraction unbound: it is the share of the substance not bound to proteins or other matrix. A higher fraction unbound goes with much free substance. As to `CC(C)[C@@H]1NC(=O)[C@H](CCCNC(=N)N)NC(=O)[C@H](CCCNC(=N)N)NC(=O)CNC(=O)[C@H](CC(N)=O)NC(=O)[C@H](CCCNC(=N)N)NC(=O)[C@H](Cc2ccc(O)cc2)NC(=O)[C@H](C(C)C)NC(=O)[C@@H]2CSSC[C@H](NC1=O)C(=O)N[C@@H](Cc1c[nH]cn1)C(=O)N[C@@H](CCCNC(=N)N)C(=O)N[C@@H](CCCNC(=N)N)C(=O)N[C@H](C(=O)N[C@@H](CC(N)=O)C(=O)O)CSSC[C@H](NC(=O)[C@H](Cc1ccccc1)NC(=O)CN)C(=O)N[C@@H](Cc1c[nH]c3ccccc13)C(=O)N[C@@H](CC(N)=O)C(=O)N[C@@H](C(C)C)C(=O)N2` [compound 239] (H-GFCWNVCVYRNGRRVCHRRCN-OH; disulfide 3-20, 7-16 (inferred); N-terminus and C-terminus assumed), the unbound share (fraction unbound) is 0.35.
`CC(C)[C@@H]1NC(=O)CNC(=O)[C@H](CC(N)=O)NC(=O)[C@H](CCCNC(=N)N)NC(=O)[C@H](Cc2ccc(O)cc2)NC(=O)[C@H](C(C)C)NC(=O)[C@@H]2CSSC[C@H](NC(=O)[C@H](C(C)C)NC(=O)[C@H](CCCNC(=N)N)NC1=O)C(=O)N[C@@H](Cc1ccc(O)cc1)C(=O)N[C@@H](CCCNC(=N)N)C(=O)N[C@@H](CCCNC(=N)N)C(=O)N[C@H](C(=O)N[C@@H](CO)C(=O)O)CSSC[C@H](NC(=O)[C@H](Cc1ccccc1)NC(=O)CN)C(=O)N[C@@H](Cc1c[nH]c3ccccc13)C(=O)N[C@@H](Cc1ccc(O)cc1)C(=O)N[C@@H](C(C)C)C(=O)N2` [compound 53] (H-GFCWYVCVYRNGVRVCYRRCS-OH; disulfide 3-20, 7-16 (inferred); N-terminus and C-terminus assumed) displayed a fraction unbound of 0.01.
To `CC(C)[C@@H]1NC(=O)CNC(=O)[C@H](CC(N)=O)NC(=O)[C@H](CCCNC(=N)N)NC(=O)[C@H](Cc2ccc(O)cc2)NC(=O)[C@H](C(C)C)NC(=O)[C@@H]2CSSC[C@H](NC(=O)[C@H](C(C)C)NC(=O)[C@H](CCCNC(=N)N)NC1=O)C(=O)N[C@@H](Cc1ccc(O)cc1)C(=O)N[C@@H](CCCNC(=N)N)C(=O)N[C@@H](CCCNC(=N)N)C(=O)N[C@H](C(=O)N[C@@H](CC(N)=O)C(=O)O)CSSC[C@H](NC(=O)[C@H](Cc1ccccc1)NC(=O)CN)C(=O)N[C@@H](Cc1c[nH]c3ccccc13)C(=O)N[C@@H](Cc1ccc(O)cc1)C(=O)N[C@@H](Cc1c[nH]c3ccccc13)C(=O)N2` [compound 20] (H-GFCWYWCVYRNGVRVCYRRCN-OH; disulfide 3-20, 7-16 (inferred); N-terminus and C-terminus assumed) belongs 0.01.
With `CC(C)[C@@H]1NC(=O)[C@H](CCCNC(=N)N)NC(=O)[C@H](CCCCN)NC(=O)CNC(=O)[C@H](CC(N)=O)NC(=O)[C@H](CCCNC(=N)N)NC(=O)[C@H](Cc2ccc(O)cc2)NC(=O)[C@H](C)NC(=O)[C@@H]2CSSC[C@H](NC1=O)C(=O)N[C@@H](Cc1ccc(O)cc1)C(=O)N[C@@H](CCCNC(=N)N)C(=O)N[C@@H](CCCNC(=N)N)C(=O)N[C@H](C(=O)N[C@@H](CC(N)=O)C(=O)O)CSSC[C@H](NC(=O)[C@H](Cc1ccccc1)NC(=O)CN)C(=O)N[C@@H](Cc1c[nH]c3ccccc13)C(=O)N[C@@H](CCCNC(=N)N)C(=O)N[C@@H](C)C(=O)N2` [compound 417] (H-GFCWRACAYRNGKRVCYRRCN-OH; disulfide 3-20, 7-16 (inferred); N-terminus and C-terminus assumed), the fraction unbound was 0.05.
For `CC(C)[C@@H]1NC(=O)CNC(=O)[C@H](CC(N)=O)NC(=O)[C@H](CCCNC(=N)N)NC(=O)[C@H](Cc2ccc(O)cc2)NC(=O)[C@H](C(C)C)NC(=O)[C@@H]2CSSC[C@H](NC(=O)CNC(=O)[C@H](CCCNC(=N)N)NC1=O)C(=O)N[C@@H](Cc1c[nH]cn1)C(=O)N[C@@H](CCCNC(=N)N)C(=O)N[C@@H](CCCNC(=N)N)C(=O)N[C@H](C(=O)N[C@@H](CC(N)=O)C(=O)O)CSSC[C@H](NC(=O)[C@H](Cc1ccccc1)NC(=O)CN)C(=O)N[C@@H](Cc1c[nH]c3ccccc13)C(=O)N[C@@H](CC(N)=O)C(=O)N[C@@H](C(C)C)C(=O)N2` [compound 246] (H-GFCWNVCVYRNGVRGCHRRCN-OH; disulfide 3-20, 7-16 (inferred); N-terminus and C-terminus assumed), the fraction unbound is 0.21.
The result for `CC(C)[C@@H]1NC(=O)CNC(=O)[C@H](CC(N)=O)NC(=O)[C@H](CCCNC(=N)N)NC(=O)[C@H](Cc2ccc(O)cc2)NC(=O)[C@H](C(C)C)NC(=O)[C@@H]2CSSC[C@H](NC(=O)[C@H](C(C)C)NC(=O)[C@H](CCCNC(=N)N)NC1=O)C(=O)N[C@@H](Cc1c[nH]cn1)C(=O)N[C@@H](CCCNC(=N)N)C(=O)N[C@@H](CCCNC(=N)N)C(=O)N[C@H](C(=O)N[C@@H](CC(N)=O)C(=O)O)CSSC[C@H](NC(=O)[C@H](Cc1ccccc1)NC(=O)CN)C(=O)N[C@@H](Cc1c[nH]c3ccccc13)C(=O)N[C@@H](CC(N)=O)C(=O)N[C@@H](Cc1ccccc1)C(=O)N2` [compound 260] (H-GFCWNFCVYRNGVRVCHRRCN-OH; disulfide 3-20, 7-16 (inferred); N-terminus and C-terminus assumed) reads 0.16.
The result for `CC(C)[C@@H]1NC(=O)CNC(=O)[C@H](CC(N)=O)NC(=O)[C@H](CCCNC(=N)N)NC(=O)[C@H](CCCNC(=N)N)NC(=O)[C@H](C(C)C)NC(=O)[C@@H]2CSSC[C@H](NC(=O)[C@H](C(C)C)NC(=O)[C@H](CCCNC(=N)N)NC1=O)C(=O)N[C@@H](Cc1ccc(O)cc1)C(=O)N[C@@H](CCCNC(=N)N)C(=O)N[C@@H](CCCNC(=N)N)C(=O)N[C@H](C(=O)N[C@@H](CC(N)=O)C(=O)O)CSSC[C@H](NC(=O)[C@H](Cc1ccccc1)NC(=O)CN)C(=O)N[C@@H](Cc1c[nH]c3ccccc13)C(=O)N[C@@H](Cc1ccc(O)cc1)C(=O)N[C@@H](C(C)C)C(=O)N2` [compound 28] (H-GFCWYVCVRRNGVRVCYRRCN-OH; disulfide 3-20, 7-16 (inferred); N-terminus and C-terminus assumed) reads 0.08.
To `CC(C)[C@@H]1NC(=O)CNC(=O)[C@H](CC(N)=O)NC(=O)[C@H](CCCNC(=N)N)NC(=O)[C@H](CCCNC(=N)N)NC(=O)[C@H](C(C)C)NC(=O)[C@@H]2CSSC[C@H](NC(=O)[C@H](C(C)C)NC(=O)[C@H](CCCNC(=N)N)NC1=O)C(=O)N[C@@H](Cc1c[nH]cn1)C(=O)N[C@@H](CCCNC(=N)N)C(=O)N[C@@H](CCCNC(=N)N)C(=O)N[C@H](C(=O)N[C@@H](CC(N)=O)C(=O)O)CSSC[C@H](NC(=O)[C@H](Cc1ccccc1)NC(=O)CN)C(=O)N[C@@H](Cc1c[nH]c3ccccc13)C(=O)N[C@@H](CCCNC(=N)N)C(=O)N[C@@H](C(C)C)C(=O)N2` [compound 335] (H-GFCWRVCVRRNGVRVCHRRCN-OH; disulfide 3-20, 7-16 (inferred); N-terminus and C-terminus assumed) belongs 0.05; to `CC(C)C[C@@H]1NC(=O)CNC(=O)[C@H](CC(N)=O)NC(=O)[C@H](CCCNC(=N)N)NC(=O)[C@H](CCCCN)NC(=O)[C@H](C(C)C)NC(=O)[C@@H]2CSSC[C@H](NC(=O)[C@H](C(C)C)NC(=O)[C@H](CCCNC(=N)N)NC1=O)C(=O)N[C@@H](Cc1ccc(O)cc1)C(=O)N[C@@H](CCCNC(=N)N)C(=O)N[C@@H](CCCNC(=N)N)C(=O)N[C@H](C(=O)N[C@@H](CC(N)=O)C(=O)O)CSSC[C@H](NC(=O)[C@H](Cc1ccccc1)NC(=O)CN)C(=O)N[C@@H](Cc1c[nH]c3ccccc13)C(=O)N[C@@H](Cc1ccc(O)cc1)C(=O)N[C@@H]([C@@H](C)O)C(=O)N2` [compound 346] (H-GFCWYTCVKRNGLRVCYRRCN-OH; disulfide 3-20, 7-16 (inferred); N-terminus and C-terminus assumed), 0.14.

The values are drawn from patent US20160158317A1, “Antimicrobial Peptide Variants and Polynucleotides Encoding Same” (Adenium Biotech A/S, priority 2010, published 2016).
